Laboratory results published in patent US10422787B2, “System and method for single molecule detection” (ARIZONA BOARD OF REGENTS on behalf of ARIZONA STATE …, priority 2015, dated 2019).
[ ]: non-standard residue; d: D form.

How the values were obtained:
Assay type in all cases: binding
[1] = molecular target: T1, α4β1 (Homo sapiens, UniProt P05556+P13612); assay: STM break-junction, effect of electrode modification (ligand) on frequency of large current events
T1 construct: purchased R&D Systems (Bio-Techne)
T1 sequence (P13612 34-977 limits assumed): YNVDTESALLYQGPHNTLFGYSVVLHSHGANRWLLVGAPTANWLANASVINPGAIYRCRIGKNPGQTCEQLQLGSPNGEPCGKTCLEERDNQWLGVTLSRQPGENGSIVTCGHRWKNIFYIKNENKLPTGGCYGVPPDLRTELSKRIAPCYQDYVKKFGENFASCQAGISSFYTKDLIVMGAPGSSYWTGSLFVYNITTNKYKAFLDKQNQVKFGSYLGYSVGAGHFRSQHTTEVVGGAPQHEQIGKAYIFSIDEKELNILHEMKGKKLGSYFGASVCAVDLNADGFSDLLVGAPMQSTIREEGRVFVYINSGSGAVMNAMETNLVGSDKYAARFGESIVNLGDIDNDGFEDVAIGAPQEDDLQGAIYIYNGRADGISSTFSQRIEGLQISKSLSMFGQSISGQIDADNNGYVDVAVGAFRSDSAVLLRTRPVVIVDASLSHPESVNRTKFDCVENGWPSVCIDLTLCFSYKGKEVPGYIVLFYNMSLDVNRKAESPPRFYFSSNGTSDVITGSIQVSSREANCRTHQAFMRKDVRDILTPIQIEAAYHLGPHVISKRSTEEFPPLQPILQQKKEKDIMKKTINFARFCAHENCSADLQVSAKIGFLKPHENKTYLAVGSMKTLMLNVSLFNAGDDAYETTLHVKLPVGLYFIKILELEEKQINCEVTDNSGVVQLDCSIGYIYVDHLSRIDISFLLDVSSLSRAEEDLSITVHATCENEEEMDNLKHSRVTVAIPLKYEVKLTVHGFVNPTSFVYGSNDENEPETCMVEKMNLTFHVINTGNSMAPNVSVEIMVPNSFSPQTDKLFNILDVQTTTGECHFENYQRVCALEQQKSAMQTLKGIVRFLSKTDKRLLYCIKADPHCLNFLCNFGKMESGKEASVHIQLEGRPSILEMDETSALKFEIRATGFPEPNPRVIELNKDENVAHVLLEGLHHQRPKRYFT
T1 sequence (P05556 21-728 limits assumed): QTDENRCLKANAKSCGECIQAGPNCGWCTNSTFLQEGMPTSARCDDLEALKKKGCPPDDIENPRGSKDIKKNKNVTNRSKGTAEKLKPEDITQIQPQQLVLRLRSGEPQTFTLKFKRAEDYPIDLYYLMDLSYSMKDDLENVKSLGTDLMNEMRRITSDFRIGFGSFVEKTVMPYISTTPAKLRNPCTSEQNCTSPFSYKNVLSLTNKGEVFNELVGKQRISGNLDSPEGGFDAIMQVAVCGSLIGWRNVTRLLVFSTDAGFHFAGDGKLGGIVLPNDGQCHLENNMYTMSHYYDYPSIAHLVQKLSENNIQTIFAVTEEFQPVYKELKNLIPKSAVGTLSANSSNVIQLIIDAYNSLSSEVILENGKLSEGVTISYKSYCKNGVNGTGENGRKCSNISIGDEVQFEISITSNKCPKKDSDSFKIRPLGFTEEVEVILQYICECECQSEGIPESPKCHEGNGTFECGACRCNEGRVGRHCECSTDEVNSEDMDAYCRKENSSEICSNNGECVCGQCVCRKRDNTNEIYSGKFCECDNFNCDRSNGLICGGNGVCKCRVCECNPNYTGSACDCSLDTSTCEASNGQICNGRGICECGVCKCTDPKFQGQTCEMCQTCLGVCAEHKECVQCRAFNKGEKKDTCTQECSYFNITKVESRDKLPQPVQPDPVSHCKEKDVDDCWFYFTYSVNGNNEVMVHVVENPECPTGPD

[2] = molecular target: αVβ3 integrin (Homo sapiens, UniProt P05106+P06756); assay: Capture of αVβ3 integrin by cyclic RGD peptide in junction device
Chain of αVβ3 integrin (P06756 31-992 limits assumed): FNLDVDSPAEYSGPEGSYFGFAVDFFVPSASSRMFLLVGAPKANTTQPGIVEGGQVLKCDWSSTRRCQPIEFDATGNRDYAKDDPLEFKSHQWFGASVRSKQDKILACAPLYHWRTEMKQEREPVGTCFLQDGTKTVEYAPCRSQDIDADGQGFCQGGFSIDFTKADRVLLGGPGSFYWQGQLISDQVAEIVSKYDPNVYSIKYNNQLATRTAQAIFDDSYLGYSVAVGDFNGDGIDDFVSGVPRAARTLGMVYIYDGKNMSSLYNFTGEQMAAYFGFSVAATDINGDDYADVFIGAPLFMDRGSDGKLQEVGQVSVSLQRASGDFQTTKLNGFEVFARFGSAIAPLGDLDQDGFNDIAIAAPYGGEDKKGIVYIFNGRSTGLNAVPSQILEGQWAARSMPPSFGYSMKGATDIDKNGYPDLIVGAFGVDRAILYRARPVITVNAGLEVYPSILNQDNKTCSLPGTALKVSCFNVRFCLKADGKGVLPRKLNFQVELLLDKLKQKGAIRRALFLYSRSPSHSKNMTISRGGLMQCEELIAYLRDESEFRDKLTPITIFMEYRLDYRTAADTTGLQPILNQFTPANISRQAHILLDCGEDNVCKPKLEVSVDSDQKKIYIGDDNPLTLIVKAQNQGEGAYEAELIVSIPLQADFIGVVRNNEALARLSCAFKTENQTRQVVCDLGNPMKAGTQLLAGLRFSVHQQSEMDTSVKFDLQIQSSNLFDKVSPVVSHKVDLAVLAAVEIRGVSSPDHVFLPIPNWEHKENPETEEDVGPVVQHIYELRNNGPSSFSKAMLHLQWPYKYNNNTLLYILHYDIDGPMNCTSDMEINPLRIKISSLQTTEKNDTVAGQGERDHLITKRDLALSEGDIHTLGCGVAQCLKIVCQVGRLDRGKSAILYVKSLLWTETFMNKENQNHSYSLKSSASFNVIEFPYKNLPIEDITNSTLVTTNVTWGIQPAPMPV
Chain of αVβ3 integrin (P05106 27-718 limits assumed): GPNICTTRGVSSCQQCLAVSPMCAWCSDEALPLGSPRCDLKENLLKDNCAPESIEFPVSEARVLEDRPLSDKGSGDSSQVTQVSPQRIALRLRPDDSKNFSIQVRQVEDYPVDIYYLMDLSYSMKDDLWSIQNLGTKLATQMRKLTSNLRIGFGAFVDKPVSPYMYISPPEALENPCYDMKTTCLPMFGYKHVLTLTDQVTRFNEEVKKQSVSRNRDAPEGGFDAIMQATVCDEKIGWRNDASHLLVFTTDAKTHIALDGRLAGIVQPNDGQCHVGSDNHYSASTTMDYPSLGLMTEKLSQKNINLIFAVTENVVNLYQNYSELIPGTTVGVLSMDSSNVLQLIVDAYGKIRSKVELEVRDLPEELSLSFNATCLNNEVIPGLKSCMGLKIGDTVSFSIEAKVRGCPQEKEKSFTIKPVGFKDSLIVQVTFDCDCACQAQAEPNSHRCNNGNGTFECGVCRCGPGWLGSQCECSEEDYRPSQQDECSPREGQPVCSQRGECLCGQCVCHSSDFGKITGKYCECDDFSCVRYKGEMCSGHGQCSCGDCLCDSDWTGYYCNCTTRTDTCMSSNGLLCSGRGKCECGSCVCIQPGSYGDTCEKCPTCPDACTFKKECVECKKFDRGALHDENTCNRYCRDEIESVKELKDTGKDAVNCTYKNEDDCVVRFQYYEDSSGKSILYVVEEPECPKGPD
From the text: In experiments, the concentration used to obtain signals with the single molecule capture device had to be quite high (i.e., nanomolar or higher) in order for the probability of capturing a single molecule in a reasonable time to be significant. In some embodiments, this probability is proportional to the volume from which molecules can be captured in a reasonable time. For example, if the molecules diffuse freely with a diffusion constant D (e.g., about 10^−11 m^2/s), then the volume from which molecules can be collected in a time t, over a linear junction length L, is given approximately by πr^2L where r^2=Dt. Taking t=60 s and L=36 nm (approximately the length of the junction around the edge of a 12 nm diameter pore), about 40 molecules would be present at 1 nM concentration in the resulting volume of 6.5×10^−17 m^3 (=6.5×10^−14 liters). […] Thus, for a device with X=10 μm, the capture volume in 1 minute capture time becomes 10^−14 m^3 or almost 100× greater. In fact, upon the solution being flowed over the device, the effective capture length is orders of magnitude greater. […] Thus, if about a linear cm of fluid is flowed past a junction slowly enough that each volume of length equal to the junction length spends about a minute over the junction, then concentrations as small as a femtomole will yield a signal.

[3] = molecular target: T2, αvβ3 (Homo sapiens, UniProt P05106+P06756); assay: STM break-junction, effect of electrode modification (ligand) on frequency of large current events
T2 construct: the αVβ3 extracelluar domain of human integrin; purchased YO Proteins AB
T2 sequence (P06756 31-992 limits assumed): as the sequence (P06756 31-992 limits assumed) above
T2 sequence (P05106 27-718 limits assumed): as the sequence (P05106 27-718 limits assumed) above
From the text: The molecular specificity of the αVβ3-RGD binding was investigated by comparing the selectivity of RGD functionalized surfaces with the selectivity of surfaces functionalized with cyclic RGE, a cyclic peptide of the same charge (RGD, pI=6.09; RGE pI=6.18) and differing by only one carbon atom. The effects of functionalizing only the probe or substrate were also investigated. The results of these experiments are summarized in Table 2 (no events were observed without functionalization). […] It can be concluded that one chemical contact is required for the high conductance to be observed, and that the specificity and frequency of events increases with the chemical specificity of the contact. In addition, specific binding results in larger current peaks at larger retraction distances than obtained with less-specific binding.
RGE is a cyclic peptide differing from RGD by only one carbon atom.
Functionalizing STM probes and substrates: The STM probes were etched from a 0.25 mm Pd wire (California Fine Wires) by an AC electrochemical etching method, and then insulated with high-density polyethylene, leaving an open apex of a few tens of nanometers in diameter. Before use, the probes were tested in 1 mM phosphate buffer (pH=7.4) at 0.5 V bias to ensure that the leakage current was <1 pA. For functionalization, the probe was gently cleaned using ethanol and water, respectively, and then dried with nitrogen flow. The probe was immersed in a 0.5 mg/mL peptide solution for ˜20 h. After that, the probe was taken out, rinsed with water, dried with nitrogen gas, and used immediately. Palladium substrates were prepared by depositing a 100 nm palladium film onto a 10 nm titanium adhesion layer coated onto a 750 μm thick silicon wafer using an electron-beam evaporator (Lesker PVD 75). The substrate was annealed with a hydrogen flame immediately before being functionalized by the same method as that for probe. Fourier transform infrared (FTIR) spectroscopy was used to characterize the functionalization. Pd substrates were also treated by UV- Ozone cleaner and H2 gas reduction (to remove PdO).
Preparation of RGD and RGE: RGD peptide, cyclo(Arg-Gly-Asp-D-Phe-Cys), was obtained from Peptides International (Louisville, Ky.). RGE peptide, cyclo(Arg-Gly-Glu-D-Phe-Cys), was synthesized by CPC Scientific (Sunnyvale, Calif.) with a purity>95%. For chip and STM tip functionalization, peptides were dissolved to a final concentration of 0.5 mg/mL in a freshly degassed 1 mM phosphate buffer (pH=7.4), which was prepared using water from a Milli-Q system with a resistance of ˜18 MΩ and a total organic carbon contamination below 4 ppb.
STM Measurements: Break junction measurements were carried out with a PicoSPM scanning probe microscope (Agilent Technologies). The Teflon liquid cells were cleaned in Piranha solution and then sonicated in Milli-Q water three times (Note that: the Piranha is highly corrosive and must be handled with extreme care). The current set point was 4 pA. Different sample bias was applied to the substrate as required. For better surface charge control, an Ag/AgCl with a salt bridge (10 mM KCl) was connected to the substrate. The tip was approached to the substrate with an integral and proportional gain of 1.0 and then left to stabilize for 0.5 h. For break junction measurements, the tip was first brought into the set point position. After 5 s of waiting, the tip was retracted 10 nm from the substrate with a speed of 0.17 nm/s, during which a current-distance trace was recorded. Subsequently, the tip was re-engaged and the retraction process repeated. About one hundred traces were collected for each experiment and at least three independent experiments were conducted for each sample (using a different substrate and tip each time).

| Substance | frequency of large current events, α4β1 ([1]; Modification Tip + Substrate) | frequency of large current events, α4β1 ([1]; Modification Tip only) | binding process [2] | Ratio (selectivity αvβ3 vs α4β1) ([3]; Modification Tip + Substrate) | frequency of large current events, αvβ3 ([3]; Modification Tip + Substrate) | Ratio (selectivity αvβ3 vs α4β1) ([3]; Modification Tip only) | frequency of large current events, αvβ3 ([3]; Modification Tip only) |
| --- | --- | --- | --- | --- | --- | --- | --- |
| cyclo(RGD[dF]C) [RGD] | 0.19 | 0.21 | almost irreversible | 3.1 | 0.57 | 2.6 | 0.55 |
| cyclo(RGE[dF]C) [RGE] | 0.25 | 0.28 |  | 1.2 | 0.31 | 1.3 | 0.36 |
